Counter-ions that a name gives are not always drawn. Like-named read-outs stand apart in the source and are kept apart here. Non-standard residues stand in square brackets, D forms with d. Residues, ends and D or L forms follow the SMILES beside them. Dopa = N[C@@H](Cc1ccc(O)c(O)c1)C(=O)O
Assays:
in vitro = conditions: human
Procedure: Caco-2 cells are human intestinal epithelial cells derived from a colorectal adenocarcinoma.
The assays are performed in both the apical to basolateral (A-B) and the B-A direction. The test compound is prepared at 10 μM in HBSS-HEPES (pH 7.4) with a final DMSO concentration of 1%. The working solution is centrifuged, and the supernatant is added to the donor side. The assay plate is incubated at 37° C. with gentle shaking for 60 min or 40 min for the A-B or B-A assay, respectively. For Pgp substrate assessment, the assays are run with and without 100 μM verapamil on both the A and B sides. For BCRP substrate assessment, the assays are run with and without 10 μM Ko143 on both the A and B sides. For MRP2 substrate assessment, the assays are run with and without 100 μM MK571 on both the A and B sides. Samples are aliquoted from the donor side at time zero and the end point, and from the receiver side at the end point.
Propranolol (highly permeable), labetalol (moderately permeable), ranitidine (poorly permeable), and colchicine (P-glycoprotein substrate), estrone-3-sulfate (BCRP substrate), or CDCF (MRP2 substrate) are included in each assay.
Samples are analyzed by HPLC-MS/MS using selected reaction monitoring. The HPLC system consists of a binary LC pump with an autosampler, a C-18 column, and a gradient. Conditions may be adjusted when necessary.
Fluorescein permeability is assessed in the A-B direction at pH 7.4 on both sides after the permeability assay with the test compound. The cell monolayer with a fluorescein permeability of less than 1.5×10−6 cm/s is considered intact.
The apparent permeability coefficient (Papp) of the test compound and its recovery are calculated as follows: […]
A is the surface area of the cell monolayer (0.11 cm^2). C is concentration of the test compound, expressed as peak area. D denotes donor and R is receiver. 0, mid, and end denote time zero, mid-point, and end of the incubation. Δt is the incubation time. V is the volume of the donor or receiver.
The permeability capabilities of the several LDAA compounds, in their TFA salt form, were determined using the Caco-2 B-A method.

[1] = Protein binding, equilibrium dialysis method; format: in vitro ADME, human; conditions: human, human plasma, pH 7.4, 1.0E-05M
Procedure: (§1) The protein binding values of various LDAA compounds in their TFA salt form (10^−5M) were tested in human plasma. The equilibrium dialysis technique was used to separate the fraction of the test compound that was unbound from the fraction of the test compound that bound to proteins during the test. The test was performed on 96-well plates in a dialysis block constructed from Teflon™.
(§2) The protein containing matrix used was human plasma, wherein the assay matrix was human serum albumin and alpha-1 acid glycoprotein. The protein matrix was spiked with each test compound at 10 μM (by default, n=2) with a final DMSO concentration of 1%. The dialysate compartment is loaded with phosphate buffered saline (PBS, pH 7.4), and the sample compartment was loaded with an equal volume of the spiked protein matrix. The dialysis plate was then sealed and incubated at 37° C. for 4 h.
(§3) Following the incubation, samples were taken from each compartment, diluted with PBS followed by the addition of acetonitrile, after which the samples were centrifuged. The supernatants were collected and analyzed by HPLC-MS/MS. The HPLC tests included a binary LC pump with an autosampler, a C18 column (2×20 mm), and gradient elution. The HPLC conditions were adjusted when necessary.
(§4) A control sample (n=2) was prepared from the spiked protein matrix in the same manner; however, no dialysis was performed on the control. It is noted that the control sample served as the bases for the recovery determination.
(§5) Acebutolol, quinidine, and warfarin were used in each assay as reference compounds, wherein it is known that those reference compounds provide low, medium and high human plasma protein binding values, respectively.
(§6) The % of the tested compound that is bound to proteins and the recovery values were calculated as follows:
(§7) Protein binding (%)=100×(Areap−Areab)/Areap
(§8) Recovery (%)=100×(Areap−Areab)/Areac
(§9) The determination of the recovery % serves as an indicator of reliability of the calculated protein binding value. […] This is most likely due to non-specific binding or degradation of the test compound. It is noted that a recovery of above 60% is considered to be reliable, while under 60% recovery, the results of the test are considered to be unreliable.

human plasma = test: Protein binding, equilibrium dialysis method; format: in vitro ADME; conditions: 1.0E-05M; 37° C., 4 h
Procedure: as §1, §2, §3, §4, §5, §6, §7, §8, §9

[2] = In-vitro absorption, Caco-2 A-B permeability; format: in vitro ADME, human; conditions: human, Caco-2, pH 7.4, Caco-2 A-B, without verapamil; for Papp A→B at 60 min, 10 μM: 1.0E−05M
Procedure: (§10) Conditions may be adjusted when necessary.
(§11) D denotes donor and R is receiver. […] V is the volume of the donor or receiver.
(§12) The test was performed with and without verapamil, which is a permeation inhibitor, and the results are presented in Tables 22 (without verapamil) and 34 (with verapamil).

P-gp = test: In-vitro absorption, Caco-2 A-B permeability; format: in vitro ADME, human; conditions: human, Caco-2, pH 7.4, with verapamil 100 μM on both the A and B sides, Caco-2 A-B, in the presence of verapamil
Procedure: as §10, §11, §12

[3] = Caco-2, pH 7.4, Percent Recovery 1st
[4] = Caco-2, pH 7.4, Percent Recovery 2nd
[5] = Caco-2, pH 7.4, Percent Recovery Mean
[6] = Caco-2, pH 7.4, Permeability 1st
[7] = Caco-2, pH 7.4, Permeability 2nd
[8] = Caco-2, pH 7.4, Permeability Mean
[9] = read-out: Percent Recovery Mean

Compound	recovery at 40 min, 10 μM (in vitro; [3])	recovery at 40 min, 10 μM (in vitro; [4])	recovery at 40 min, 10 μM (in vitro; [5])	Papp B→A at 40 min, 10 μM (in vitro; [6])	Papp B→A at 40 min, 10 μM (in vitro; [7])	Papp B→A at 40 min, 10 μM (in vitro; [8])	recovery at 4 h, 10 μM ([1]; read-out: % Recovery 1st)	recovery at 4 h, 10 μM ([1]; read-out: % Recovery 2nd)	recovery at 4 h, 10 μM ([1]; read-out: % Recovery Mean)	% Protein Bound 1st (human plasma)	% Protein Bound 2nd (human plasma)	Papp A→B at 60 min, 10 μM ([2]; read-out: Permeability 1st)	Papp A→B at 60 min, 10 μM ([2]; read-out: Permeability 2nd)	Papp A→B at 60 min, 10 μM ([2]; read-out: Permeability Mean)	recovery at 60 min, 10 μM ([2]; read-out: Percent Recovery 1st)	recovery at 60 min, 10 μM ([2]; read-out: Percent Recovery 2nd)	recovery at 60 min, 10 μM [2, 9]	recovery at 60 min, 10 μM (P-gp; read-out: Percent Recovery 1st)	recovery at 60 min, 10 μM (P-gp; read-out: Percent Recovery 2nd)	recovery at 60 min, 10 μM (P-gp; [9])	also measured
N[C@@H](CSC[C@@H](NC(=O)[C@@H](N)Cc1ccc(O)c(O)c1)C(=O)O)C(=O)O (single isomer, unassigned; peak 1) [LD-LA1 TFA salt, Levodopa Lanthionine Peak 1 TFA Salt]	80%	86%	83%	0.28 ×10⁻⁶ cm/s	0.22 ×10⁻⁶ cm/s	0.3 ×10⁻⁶ cm/s	75%	71%	73%	24.4%	27.8%	0.2 ×10⁻⁶ cm/s	0.21 ×10⁻⁶ cm/s	0.2 ×10⁻⁶ cm/s	82%	77%	79%	58%	67%	62%	% Protein Bound Mean (human plasma): 26%
N[C@@H](Cc1ccc(O)c(O)c1)C(=O)O [LD (control), L-3,4-dihydroxyphenylalanine, reference compound]	101%	92%	96%	0.38 ×10⁻⁶ cm/s	0.41 ×10⁻⁶ cm/s	< 0.4 ×10⁻⁶ cm/s						1.15 ×10⁻⁶ cm/s	1.25 ×10⁻⁶ cm/s	1.2 ×10⁻⁶ cm/s	37%	22%	29%	63%	41%	52%	
NC(=O)CC[C@H](NC(=O)[C@@H](N)Cc1ccc(O)c(O)c1)C(=O)O [LD-Gln TFA salt, Levodopa Glutamine TFA Salt] (H-[Dopa]-Gln-OH)	81%	92%	87%	1.01 ×10⁻⁶ cm/s	0.79 ×10⁻⁶ cm/s	0.9 ×10⁻⁶ cm/s	77%	78%	78%	99.7%	99.8%	1.83 ×10⁻⁶ cm/s	1.47 ×10⁻⁶ cm/s	1.7 ×10⁻⁶ cm/s	68%	70%	69%	74%	69%	71%	% Protein Bound Mean (human plasma): 99%
N[C@@H](Cc1ccc(O)c(O)c1)C(=O)N[C@@H](Cc1c[nH]c2ccccc12)C(=O)O [LD-Trp TFA salt, Levodopa Tryptophan] (H-[Dopa]-Trp-OH)	71%	82%	77%	0.01 ×10⁻⁶ cm/s	0.01 ×10⁻⁶ cm/s	< 0.01 ×10⁻⁶ cm/s	68%	74%	71%	54.8%	66%	0.04 ×10⁻⁶ cm/s	0.03 ×10⁻⁶ cm/s		52%	51%	51%	50%	45%	47%	% Protein Bound Mean (human plasma): 60%
N[C@@H](CSC[C@H](NC(=O)[C@@H](N)Cc1ccc(O)c(O)c1)C(=O)O)C(=O)O (single isomer, unassigned; peak 2) [LD-LA2 TFA salt, Levodopa Lanthionine Peak 2 TFA Salt]	79%	69%	74%	13 ×10⁻⁶ cm/s	13.6 ×10⁻⁶ cm/s	13.3 ×10⁻⁶ cm/s						20.2 ×10⁻⁶ cm/s	17.8 ×10⁻⁶ cm/s	19 ×10⁻⁶ cm/s	86%	91%	89%	89%	87%	88%	

From patent US20220362386A1, “LIQUID COMPOSITIONS COMPRISING A LEVODOPA AMINO ACID CONJUGATE AND USES THEREOF” (NeuroDerm, Ltd., priority 2019, published 2022)
